PubChem BioAssay AID328 (DTP/NCI, 2004)
Several values for one entry are separate records, joined by “and”; a condition that tells them apart may be missing. Equal values may be shown once. Inconclusive results and toxic doses are left out.

Test system: BDF1 mice, P388 leukemia ip, median survival T/C
Experiment: NCI In Vivo Anticancer Drug Screen. Data for tumor model P388 Leukemia (intraperitoneal) in B6D2F1 (BDF1) mice
Conditions: endpoint: median survival time, higher = longer survival
Outline: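 Steps: implant the tumour, treat one group with compound and another with vehicle, record survival, then divide treated by control.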

[1] = dose: 25.0 mg/kg/injection, schedule: Q04DX003 (ip), vehicle: saline
[2] = dose: 100.0 mg/kg/injection, schedule: Q01DX009 (ip), vehicle: saline with Tween-80
[3] = dose: 100.0 mg/kg/injection, schedule: Q04DX003 (ip), vehicle: saline with Tween-80
[4] = dose: 200.0 mg/kg/injection, schedule: Q01DX009 (ip), vehicle: saline with Tween-80
[5] = dose: 200.0 mg/kg/injection, schedule: Q04DX003 (ip), vehicle: saline with Tween-80
[6] = dose: 400.0 mg/kg/injection, schedule: Q01DX009 (ip), vehicle: saline with Tween-80
[7] = dose: 400.0 mg/kg/injection, schedule: Q04DX003 (ip), vehicle: saline with Tween-80
[8] = dose: 12.5 mg/kg/injection, schedule: Q04DX003 (ip), vehicle: water
[9] = dose: 50.0 mg/kg/injection, schedule: Q04DX003 (ip), vehicle: water
[10] = dose: 50.0 mg/kg/injection, schedule: Q01DX009 (ip), vehicle: saline
[11] = dose: 100.0 mg/kg/injection, schedule: Q01DX009 (ip), vehicle: saline

CC(=O)Nc1ccc2c(Nc3ccc(NS(C)(=O)=O)cc3)c3ccccc3nc2c1
T/C (dose: 0.73 mg/kg/injection, schedule: Q01DX009 (ip), vehicle: saline): 254 % of control
T/C (dose: 0.88 mg/kg/injection, schedule: Q04DX003 (ip), vehicle: saline): 163 % of control
T/C (dose: 1.1 mg/kg/injection, schedule: Q01DX009 (ip), vehicle: saline): 260 % of control
T/C (dose: 1.32 mg/kg/injection, schedule: Q04DX003 (ip), vehicle: saline): 195 % of control
T/C (dose: 1.65 mg/kg/injection, schedule: Q01DX009 (ip), vehicle: saline): 260 % of control
T/C (dose: 2.0 mg/kg/injection, schedule: Q04DX003 (ip), vehicle: saline): 200 % of control
T/C (dose: 2.5 mg/kg/injection, schedule: Q01DX009 (ip), vehicle: saline): 252 % of control and 262 % of control
T/C (dose: 3.0 mg/kg/injection, schedule: Q04DX003 (ip), vehicle: saline): 195 % of control
T/C (dose: 5.0 mg/kg/injection, schedule: Q01DX009 (ip), vehicle: saline): 92 % of control
T/C (dose: 5.56 mg/kg/injection, schedule: Q04DX003 (ip), vehicle: saline): 250 % of control
T/C (dose: 5.6 mg/kg/injection, schedule: Q04DX003 (ip), vehicle: saline): 236 % of control
T/C (dose: 8.3 mg/kg/injection, schedule: Q04DX003 (ip), vehicle: saline): 281 % of control
T/C (dose: 8.33 mg/kg/injection, schedule: Q04DX003 (ip), vehicle: saline): 250 % of control
T/C (dose: 12.5 mg/kg/injection, schedule: Q04DX003 (ip), vehicle: saline): 250 % of control and 272 % of control and 281 % of control
T/C (dose: 18.7 mg/kg/injection, schedule: Q04DX003 (ip), vehicle: saline): 250 % of control and 277 % of control
T/C [1]: 122 % of control
T/C (dose: 18.0 micrograms/kg/injection, schedule: Q04DX003 (ip), vehicle: saline): 104 % of control
T/C (dose: 27.0 micrograms/kg/injection, schedule: Q04DX003 (ip), vehicle: saline): 109 % of control
T/C (dose: 40.0 micrograms/kg/injection, schedule: Q04DX003 (ip), vehicle: saline): 113 % of control

CC(/C=C/C(O)=C1/C(=O)CNC1=O)=C\[C@@H](C)[C@H]1O[C@@]2(C)O[C@H](C(=O)[C@@H]3O[C@@]32C)[C@@H]1C
T/C (dose: 3.13 mg/kg/injection, schedule: Q01DX009 (ip), vehicle: saline with Tween-80): 108 % of control
T/C (dose: 6.25 mg/kg/injection, schedule: Q01DX009 (ip), vehicle: saline with Tween-80): 105 % of control
T/C (dose: 12.5 mg/kg/injection, schedule: Q01DX009 (ip), vehicle: saline with Tween-80): 103 % of control
T/C (dose: 25.0 mg/kg/injection, schedule: Q01DX009 (ip), vehicle: saline with Tween-80): 100 % of control

NC(=O)N/N=C/c1ccccc1N
T/C (dose: 100.0 mg/kg/injection, schedule: Q01DX009 (ip), vehicle: Klucel (hydroxypropylcellulose) (HPC)): 90 % of control
T/C (dose: 200.0 mg/kg/injection, schedule: Q01DX009 (ip), vehicle: Klucel (hydroxypropylcellulose) (HPC)): 100 % of control
T/C (dose: 400.0 mg/kg/injection, schedule: Q01DX009 (ip), vehicle: Klucel (hydroxypropylcellulose) (HPC)): 100 % of control

N#C/C(=C/Cc1ccccc1)Nc1ccccc1
T/C [2]: 100 % of control
T/C [3]: 113 % of control
T/C [4]: 115 % of control
T/C [5]: 118 % of control
T/C [6]: 115 % of control
T/C [7]: 104 % of control

CC(=O)NC(Cc1ccc(N(CCCl)CCCl)cc1)C(=O)O (configuration not stated)
T/C (dose: 1.56 mg/kg/injection, schedule: Q01DX009 (ip), vehicle: water): 110 % of control
T/C (dose: 3.12 mg/kg/injection, schedule: Q01DX009 (ip), vehicle: water): 123 % of control
T/C (dose: 6.25 mg/kg/injection, schedule: Q01DX009 (ip), vehicle: water): 118 % of control
T/C [8]: 172 % of control
T/C (dose: 25.0 mg/kg/injection, schedule: Q01DX009 (ip), vehicle: water): 203 % of control
T/C (dose: 25.0 mg/kg/injection, schedule: Q04DX003 (ip), vehicle: water): 164 % of control and 200 % of control
T/C (dose: 50.0 mg/kg/injection, schedule: Q01DX009 (ip), vehicle: water): 248 % of control
T/C [9]: 245 % of control and 200 % of control
T/C (dose: 100.0 mg/kg/injection, schedule: Q04DX003 (ip), vehicle: water): 194 % of control

O=C(NO)c1cc(O)c(O)c(O)c1
T/C (dose: 50.0 mg/kg/injection, schedule: Q01DX005 (ip), vehicle: distilled water + Tween-80): 123 % of control
T/C (dose: 200.0 mg/kg/injection, schedule: Q01DX005 (ip), vehicle: distilled water + Tween-80): 150 % of control
T/C (dose: 400.0 mg/kg/injection, schedule: Q01DX005 (ip), vehicle: distilled water + Tween-80): 153 % of control

O=[N+]([O-])c1ccc(S(=O)(=O)c2ccc([N+](=O)[O-])c3no[n+]([O-])c23)cc1
T/C (dose: 15.0 mg/kg/injection, schedule: Q01DX009 (ip), vehicle: saline with Tween-80): 100 % of control
T/C (dose: 30.0 mg/kg/injection, schedule: Q01DX009 (ip), vehicle: saline with Tween-80): 90 % of control

CC(C)NCC(O)COc1ccc2ncsc2c1 (configuration not stated)
T/C [10]: 108 % of control
T/C [11]: 110 % of control
T/C (dose: 200.0 mg/kg/injection, schedule: Q01DX009 (ip), vehicle: saline): 91 % of control

Cc1ccc(C(SCC(N)C(=O)O)(c2ccc(C)cc2)c2ccc(C)cc2)cc1 (configuration not stated)
T/C (dose: 65.0 mg/kg/injection, schedule: Q04DX003 (ip), vehicle: Klucel (hydroxypropylcellulose) (HPC)): 159 % of control
T/C (dose: 100.0 mg/kg/injection, schedule: Q04DX003 (ip), vehicle: Klucel (hydroxypropylcellulose) (HPC)): 175 % of control
T/C (dose: 200.0 mg/kg/injection, schedule: Q04DX003 (ip), vehicle: Klucel (hydroxypropylcellulose) (HPC)): 185 % of control
T/C (dose: 264.0 mg/kg/injection, schedule: Q04DX003 (ip), vehicle: Klucel (hydroxypropylcellulose) (HPC)): 230 % of control and 150 % of control
T/C (dose: 400.0 mg/kg/injection, schedule: Q04DX003 (ip), vehicle: Klucel (hydroxypropylcellulose) (HPC)): 177 % of control and 190 % of control (2×)

C=CCOP(OCC=C)OCC=C
T/C (dose: 25.0 mg/kg/injection, schedule: Q01DX009 (ip), vehicle: saline): 90 % of control
T/C [1]: 95 % of control
T/C [10]: 90 % of control
T/C [11]: 104 % of control
T/C (dose: 100.0 mg/kg/injection, schedule: Q04DX003 (ip), vehicle: saline): 100 % of control

CC(=O)[C@]1(O)Cc2c(O)c3c(c(O)c2[C@@H](OC2CC(N)C(O)C(C)O2)C1)C(=O)c1c(OC(C)C)cccc1C3=O (some centres not stated)
T/C (dose: 6.25 mg/kg/injection, schedule: Q04DX003 (ip), vehicle: water): 118 % of control
T/C [8]: 162 % of control
T/C [9]: 89 % of control

CSC1C(=O)Nc2c1cccc2[N+](=O)[O-] (configuration not stated)
T/C (dose: 50.0 mg/kg/injection, schedule: Q04DX002 (ip), vehicle: saline with Tween-80): 96 % of control
T/C (dose: 100.0 mg/kg/injection, schedule: Q04DX002 (ip), vehicle: saline with Tween-80): 92 % of control
T/C (dose: 200.0 mg/kg/injection, schedule: Q04DX002 (ip), vehicle: saline with Tween-80): 99 % of control

COc1cc(/C=N/NC(N)=S)cc(OC)c1OC
T/C [2]: 104 % of control
T/C [3]: 90 % of control
T/C [4]: 104 % of control
T/C [5]: 109 % of control
T/C [6]: 100 % of control
T/C [7]: 104 % of control

CCCCCCCCCCCCCCCC(=O)N(c1ccc(N)cc1)C(C)CCCN(CC)CC (configuration not stated)
T/C [2]: 89 % of control
T/C [3]: 90 % of control
T/C [4]: 98 % of control
T/C [5]: 90 % of control
T/C [6]: 100 % of control
T/C [7]: 90 % of control
